# pKi: −log10 of the molar value.
# How the values were obtained:
# Format in all cases: biochemical
# [1] = molecular target: T1, cathepsin L isolated from human liver (Homo sapiens, UniProt P07711); assay: Cathepsin L kinetic fluorescence enzyme inhibition assay; conditions: selectivity ratio versus calpain I
# T1 construct: cathepsin L—isolated from human liver; purchased Calbiochem 219402; host or cells: human liver (tissue isolate)
# Method: (§1) The following solutions and buffers were employed: • HBS (for 40 ml): 800 μl M HEPES; 2.16 ml 100 mM KCl; 4.8 ml 1M NaCl; 3.59 ml 5% glucose; 60 μl μM MgSO4; 400 μl 100 mM Na pyruvate, 28.19 ml water; pH 7.2-7.5. • lysis buffer (for 20 ml): 400 μl M Tris pH 8.2; 2.74 ml 1M NaCl; 520 μl 0.5M EDTA; 2 ml 10% triton X-100; 0.8 ml (=1:25) CompletePlus (1 tablet/2 ml H2O); 200 μl 100 mM Pefabloc; 13.34 ml water, pH 8.2. • TBST (10×) (for 1 l): 100 mM Tris (12.1 g); 1.5M NaCl (87 g); 1% Tween 20 (10 g), adjusted to pH 8. I Enzyme Inhibition In Vitro: • Testing for blockade of the corresponding enzymic activities was carried out by means of kinetic fluorescence assays (excitation 390 nm, emission 460 nm). • Apparent Ki values were calculated from the experimentally determined IC50 values by the Cheng-Prussoff relation assuming a reversible competitive enzyme inhibition. The Km values of the substrates used under the assay conditions indicated above were: 90 μM (Z-Phe-Arg-AMC, cathepsin B), 10 μM (Z-Gly-Pro-Arg-AMC, cathepsin K), 2 μM (Z-Phe-Arg-AMC, cathepsin L), and 30 μM (Z-Val-Val-Arg-AMC, cathepsin S). • The indicated Ki values are averages of the inhibition constants calculated on the basis of 2 to 4 independent dose-effect plots.
# (§2) The following assays were used: • 1. Calpain I: • 20 nM calpain-I—isolated from human erythrocytes (Calbiochem #208713), 100 μM Suc-Leu-Tyr-AMC (Bachem #1-1355) as substrate in buffer with 62 mM imidazole, 0.3 mM CaCl2, 0.10% CHAPS, 0.05% BSA, 1 mM DTT at pH 7.3 and room temperature. • 2. Cathepsin B: • 0.25 nM cathepsin B—isolated from human liver (Calbiochem #219362), 100 μM Z-Phe-Arg-AMC (Bachem #I-1160) as substrate 50 mM MES, 2 mM EDTA, 0.05% Brij 35, 2.5 mM L-cysteine, pH 6.0, room temperature. • 3. Cathepsin K: • 3 nM cathepsin K—activated from recombinant human procathepsin K from E. coli (Calbiochem #342001), 10 μM Z-Gly-Pro-Arg-AMC (Biomol #P-142) as substrate in 50 mM MES, 2 mM EDTA, 0.05% Brij 35, 2.5 mM L-cysteine, pH 6.0, room temperature. • 4. Cathepsin L: • 1 nM cathepsin L—isolated from human liver (Calbiochem #219402), 2 μM Z-Phe-Arg-AMC (Bachem #1-1160) as substrate in 50 mM MES, 2 mM EDTA, 0.05% Brij 35, 2.5 mM L-cysteine, pH 6.0, room temperature. • 5. Cathepsin S: • 0.5 nM recombinant human cathepsin S from E. coli (Calbiochem #219343), 20 μM Z-Val-Val-Arg-AMC (Bachem #1-1540) as substrate in 50 mM MES, 2 mM EDTA, 0.05% Brij 35, 2.5 mM L-cysteine, pH 6.0, room temperature. • The results of the in vitro determination are indicated in Table 1. The following abbreviations are used in Table 1: • The “Calpain activity” column, ++ stands for a calpain Ki (Ki(calpain)) of ≦40 nM and + means: 40 nM<Ki(Calpain)≦100 nM. • The “Sel. cat. B” column indicates the Ki(cathepsin B)/Ki(calpain) ratio. In this connection, ++ means a Ki(cathepsin B)/Ki(calpain) ratio of ≧30 and + means 10≦Ki(cathepsin B)/Ki(calpain)<30. • The “Sel. cat. K” column indicates the Ki(cathepsin K)/Ki(calpain) ratio. In this connection, ++ means a Ki(cathepsin K)/Ki(calpain) ratio of ≧30 and + means 10≦Ki(cathepsin K)/Ki(calpain)<30. • The “Sel. cat. L” column indicates the Ki(cathepsin L)/Ki(calpain) ratio. In this connection, ++ means a Ki(cathepsin L)/Ki(calpain) ratio of ≧50 and + means 30≦Ki(cathepsin L)/Ki(calpain)<50. • The “Sel. cat. S” column indicates the Ki(cathepsin S)/Ki(calpain) ratio. In this connection, ++ means a Ki(cathepsin S)/Ki(calpain) ratio of ≧100 and + means 50≦Ki(cathepsin S)/Ki(calpain)<100.
# [2] = molecular target: T2, calpain-I isolated from human erythrocytes (Homo sapiens, UniProt P07384); assay: Calpain I kinetic fluorescence enzyme inhibition assay; conditions: apparent Ki from IC50 by Cheng-Prussoff; average of 2 to 4 dose-effect plots
# T2 construct: calpain-I—isolated from human erythrocytes; purchased Calbiochem 208713; host or cells: human erythrocytes (tissue isolate)
# T2 sequence (P07384 1-714): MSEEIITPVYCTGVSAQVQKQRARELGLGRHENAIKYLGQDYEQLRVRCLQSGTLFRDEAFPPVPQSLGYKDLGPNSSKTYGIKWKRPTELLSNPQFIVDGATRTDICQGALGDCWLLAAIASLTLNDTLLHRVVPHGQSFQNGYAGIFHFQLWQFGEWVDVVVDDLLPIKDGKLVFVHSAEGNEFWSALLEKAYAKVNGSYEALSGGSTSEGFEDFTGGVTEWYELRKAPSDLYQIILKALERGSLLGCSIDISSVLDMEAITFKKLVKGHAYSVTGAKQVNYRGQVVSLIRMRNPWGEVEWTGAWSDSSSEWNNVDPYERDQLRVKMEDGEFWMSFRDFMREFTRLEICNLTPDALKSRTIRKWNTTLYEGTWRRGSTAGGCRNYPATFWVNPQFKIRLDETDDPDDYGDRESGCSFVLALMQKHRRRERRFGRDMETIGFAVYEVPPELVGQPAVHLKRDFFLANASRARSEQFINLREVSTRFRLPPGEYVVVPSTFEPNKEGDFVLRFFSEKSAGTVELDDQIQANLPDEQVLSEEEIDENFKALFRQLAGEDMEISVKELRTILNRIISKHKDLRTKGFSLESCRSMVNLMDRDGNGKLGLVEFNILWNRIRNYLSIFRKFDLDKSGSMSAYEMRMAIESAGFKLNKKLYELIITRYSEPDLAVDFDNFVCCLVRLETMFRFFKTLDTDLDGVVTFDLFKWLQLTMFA
# T2 sequence (P04632 1-268 partner): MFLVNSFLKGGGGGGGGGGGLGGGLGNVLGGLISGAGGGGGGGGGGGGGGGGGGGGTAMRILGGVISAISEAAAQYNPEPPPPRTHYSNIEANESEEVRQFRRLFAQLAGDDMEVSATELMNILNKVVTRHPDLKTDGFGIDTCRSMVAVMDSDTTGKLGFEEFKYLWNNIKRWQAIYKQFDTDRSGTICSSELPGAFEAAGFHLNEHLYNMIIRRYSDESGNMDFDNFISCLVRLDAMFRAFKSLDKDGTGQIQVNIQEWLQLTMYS
# Method: as §1, §2
# [3] = molecular target: T3, recombinant human cathepsin S (Homo sapiens, UniProt P25774); assay: Cathepsin S kinetic fluorescence enzyme inhibition assay; conditions: selectivity ratio versus calpain I
# T3 construct: purchased Calbiochem 219343; host or cells: E. coli
# Method: as §1, §2
# T3 sequence (P25774 115-331): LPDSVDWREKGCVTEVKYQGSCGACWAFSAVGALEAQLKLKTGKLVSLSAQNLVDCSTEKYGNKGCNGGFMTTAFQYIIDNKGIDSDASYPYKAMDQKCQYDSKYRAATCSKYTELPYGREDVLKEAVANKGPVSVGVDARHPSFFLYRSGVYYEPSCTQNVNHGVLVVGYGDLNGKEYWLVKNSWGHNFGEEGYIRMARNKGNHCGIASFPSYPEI
# T1 sequence (P07711 114-333): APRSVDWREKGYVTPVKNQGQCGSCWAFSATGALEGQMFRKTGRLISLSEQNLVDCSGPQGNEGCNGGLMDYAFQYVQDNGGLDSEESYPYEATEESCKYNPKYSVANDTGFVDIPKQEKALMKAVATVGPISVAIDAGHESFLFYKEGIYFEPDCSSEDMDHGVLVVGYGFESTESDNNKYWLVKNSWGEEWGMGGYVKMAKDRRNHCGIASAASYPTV
SMILES,pKi [2],Sel cat. L (Ki(cathepsin L)/Ki(calpain) ratio) [1],Sel cat. S (Ki(cathepsin S)/Ki(calpain) ratio) [3]
"CCN(CC)c1ccc(-c2ccn(-c3ncccc3C(=O)NC(Cc3ccccc3)C(=O)C(N)=O)n2)cc1 (centres unmarked) [Example 42, N-(3-Amino-1-benzyl-2,3-dioxopropyl)-2-{3-[4-(diethylamino)phenyl]-1H-pyrazol-1-yl}nicotinamide]",≥ 7.40,,++ (Ki(cathepsin S)/Ki(calpain) ratio of ≧100)
"CCN(CC)Cc1ccc(-c2ccn(-c3ncccc3C(=O)NC(Cc3ccccc3)C(=O)C(N)=O)n2)cc1.Cl (centres unmarked) [Example 43, N-(3-Amino-1-benzyl-2,3-dioxopropyl)-2-(3-{4-[(diethylamino)methyl]phenyl}-1H-pyrazol-1-yl)nicotinamide hydrochloride]",7.00 to 7.40,,++ (Ki(cathepsin S)/Ki(calpain) ratio of ≧100)
"CCCCC(NC(=O)c1cccnc1-n1ccc(-c2ccc(CN(CC)CC)cc2)n1)C(=O)C(N)=O (centres unmarked) [Example 44, N-{1-[Amino(oxo)acetyl]pentyl}-2-(3-{4-[(diethylamino)methyl]phenyl}-1H-pyrazol-1-yl)nicotinamide]",≥ 7.40,,+ (50≦Ki(cathepsin S)/Ki(calpain)<100)
"CCCCC(NC(=O)c1cccnc1-n1ccc(-c2ccc(CN3CCOCC3)cc2)n1)C(=O)C(N)=O (centres unmarked) [Example 45, N-{1-[Amino(oxo)acetyl]pentyl}-2-{3-[4-(morpholin-4-ylmethyl)phenyl]-1H-pyrazol-1-yl}nicotinamide]",≥ 7.40,,+ (50≦Ki(cathepsin S)/Ki(calpain)<100)
"CCCCC(NC(=O)c1cccnc1-n1ccc(-c2ccc(N(CC)CC)cc2)n1)C(=O)C(N)=O (centres unmarked) [Example 47, N-{1-[Amino(oxo)acetyl]pentyl}-2-{3-[4-(diethylamino)phenyl]-1H-pyrazol-1-yl}nicotinamide]",≥ 7.40,,++ (Ki(cathepsin S)/Ki(calpain) ratio of ≧100)
"NC(=O)C(=O)C(Cc1ccccc1)NC(=O)c1cccnc1-n1ccc(-c2ccc(-n3ccnc3)cc2)n1 (centres unmarked) [Example 101, N-[3-Amino-2,3-dioxo-1-(phenylmethyl)propyl]-2-{3-[4-(1H-imidazol-1-yl)phenyl]-1H-pyrazol-1-yl}pyridine-3-carboxamide]",≥ 7.40,,++ (Ki(cathepsin S)/Ki(calpain) ratio of ≧100)
"NC(=O)C(=O)C(Cc1ccccc1)NC(=O)c1cccnc1-n1cc(CCN2CCOCC2)c(-c2ccc(F)cc2)n1 (centres unmarked) [Example 165, N-[3-Amino-2,3-dioxo-1-(phenylmethyl)propyl]-2-[3-(4-fluorophenyl)-4-(2-morpholin-4-ylethyl)-1H-pyrazol-1-yl]pyridine-3-carboxamide]",7.00 to 7.40,,++ (Ki(cathepsin S)/Ki(calpain) ratio of ≧100)
"NC(=O)C(=O)C(Cc1ccccc1)NC(=O)c1cccnc1-n1cc(CN2CCOCC2)c(-c2cccc(C(F)(F)F)c2)n1 (centres unmarked) [Example 177, N-[3-Amino-2,3-dioxo-1-(phenylmethyl)propyl]-2-{4-(morpholin-4-ylmethyl)-3-[3-(trifluoromethyl)phenyl]-1H-pyrazol-1-yl}pyridine-3-carboxamide]",7.00 to 7.40,,++ (Ki(cathepsin S)/Ki(calpain) ratio of ≧100)

# The next lines start with results.
pKi [2],SMILES,Sel cat. L (Ki(cathepsin L)/Ki(calpain) ratio) [1],Sel cat. S (Ki(cathepsin S)/Ki(calpain) ratio) [3]
≥ 7.40,"CCCCC(NC(=O)c1cccnc1-n1cnc(-c2ccccc2)c1)C(=O)C(N)=O (centres unmarked) [Example 2, N-{1-[Amino(oxo)acetyl]pentyl}-2-(4-phenyl-1H-imidazol-1-yl)nicotinamide]",++ (Ki(cathepsin L)/Ki(calpain) ratio of ≧50),
7.00 to 7.40,"NC(=O)C(=O)C(Cc1ccccc1)NC(=O)c1cccnc1-n1ccc(-c2ccc(CN3CCOCC3)cc2)n1 (centres unmarked) [Example 46, N-(3-Amino-1-benzyl-2,3-dioxopropyl)-2-{3-[4-(morpholin-4-ylmethyl)phenyl]-1H-pyrazol-1-yl}nicotinamide]",,++ (Ki(cathepsin S)/Ki(calpain) ratio of ≧100)
7.00 to 7.40,"Cl.NC(=O)C(=O)C(Cc1ccccc1)NC(=O)c1cccnc1-n1ccc(-c2cccc(CN3CCOCC3)c2)n1 (centres unmarked) [Example 52, N-(3-Amino-1-benzyl-2,3-dioxopropyl)-2-{3-[3-(morpholin-4-ylmethyl)phenyl]-1H-pyrazol-1-yl}nicotinamide hydrochloride]",,++ (Ki(cathepsin S)/Ki(calpain) ratio of ≧100)
≥ 7.40,"NC(=O)C(=O)C(Cc1ccccc1)NC(=O)c1cccnc1-n1cc(-c2ccccc2F)cn1 (centres unmarked) [Example 104, N-[3-Amino-2,3-dioxo-1-(phenylmethyl)propyl]-2-[4-(2-fluorophenyl)-1H-pyrazol-1-yl]pyridine-3-carboxamide]",,+ (50≦Ki(cathepsin S)/Ki(calpain)<100)
7.00 to 7.40,"NC(=O)C(=O)C(Cc1ccccc1)NC(=O)c1cccnc1-n1cc(CN2CCCC2)c(-c2cccc(C(F)(F)F)c2)n1 (centres unmarked) [Example 178, N-[3-Amino-2,3-dioxo-1-(phenylmethyl)propyl]-2-{4-(pyrrolidin-1-ylmethyl)-3-[3-(trifluoromethyl)phenyl]-1H-pyrazol-1-yl}pyridine-3-carboxamide]",,++ (Ki(cathepsin S)/Ki(calpain) ratio of ≧100)

# Reference: US7728012B2, “Carboxamide compounds and their use as calpain inhibitors” (Abbott GmbH & Co. KG, priority 2006, dated 2010)
